The source of these data is patent US9481659B2, “Selective heterocyclic sphingosine 1 phosphate receptor modulators” (Celgene International II SÀRL, priority 2011, dated 2016).

S1P1/EDG1, sequence (P21453 whole entry): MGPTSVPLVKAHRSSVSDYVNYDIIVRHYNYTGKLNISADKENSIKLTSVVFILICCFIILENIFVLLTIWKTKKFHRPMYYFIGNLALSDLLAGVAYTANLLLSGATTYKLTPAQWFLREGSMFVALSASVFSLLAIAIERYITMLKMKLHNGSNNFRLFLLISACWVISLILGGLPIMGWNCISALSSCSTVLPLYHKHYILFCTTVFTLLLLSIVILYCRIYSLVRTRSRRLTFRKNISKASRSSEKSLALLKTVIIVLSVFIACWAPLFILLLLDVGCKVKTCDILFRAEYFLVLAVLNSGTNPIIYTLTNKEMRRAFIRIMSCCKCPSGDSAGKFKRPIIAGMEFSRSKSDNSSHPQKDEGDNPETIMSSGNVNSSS

This test addresses S1P1/EDG1 (Homo sapiens, UniProt P21453). In words: S1P1 CRE-bla CHOK1 reporter assay, inhibition of Forskolin induced cAMP. It is filed as cell-based. The settings on record: agonist activity range; S1P1 CRE-bla CHOK1 cells, 2 μM Forskolin; read-out: S1P1 ACTIVITY
A digest of the protocol: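 CRE-bla CHO K1 cells stably expressing human S1P1 were treated 4 hrs at 37° C with 10-point compound dilutions plus 2 μM Forskolin. Inhibition of cAMP-driven β-lactamase reporter was read with a FRET substrate loaded 2 hrs at room temperature.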
For orientation: A reporter such as luciferase makes a cellular process visible.
For the compound `CNCC(=O)N[C@@H]1CCCc2c(-c3nnc(-c4ccc(OC(C)C)c(C#N)c4)s3)cccc21` [Compound 251], the EC50 fell in the range of 0.5 to 5 nM. Consider `CNCC(=O)N[C@H]1CCCc2c(-c3nnc(-c4ccc(OC(C)C)c(C#N)c4)s3)cccc21` [Compound 252], for which the EC50 lay within 0.05 to 0.5 nM. On to `CC(C)Oc1ccc(-c2nnc(-c3cccc4c3CCC[C@@H]4NC(=O)CCN)s2)cc1C#N` [Compound 253], for which the EC50 fell in the range of 0.5 to 5 nM. Regarding `CC(C)Oc1ccc(-c2nnc(-c3cccc4c3CCC[C@@H]4NC(=O)CCNS(C)(=O)=O)s2)cc1C#N` [Compound 254], the EC50 was 0.5 to 5 nM. For the compound `CC(C)Oc1ccc(-c2nnc(-c3cccc4c3CCC[C@@H]4NC(=O)CCO)s2)cc1C#N` [Compound 255], the EC50 fell in the range of 0.05 to 0.5 nM. For the compound `CC(C)Oc1ccc(-c2nnc(-c3cccc4c3CCC[C@@H]4NC(=O)CCN(C)C)s2)cc1C#N` [Compound 256, (S)—N-(5-(5-(3-cyano-4-isopropoxyphenyl)-1,3,4-thiadiazol-2-yl)-1,2,3,4-tetrahydronaphthalen-1-yl)-3-(dimethylamino)propanamide], the EC50 was 0.5 to 5 nM. Then `CC(C)Oc1ccc(-c2nnc(-c3cccc4c3CCC[C@H]4NC(=O)CCN(C)C)s2)cc1C#N` [Compound 257, (R)—N-(5-(5-(3-cyano-4-isopropoxyphenyl)-1,3,4-thiadiazol-2-yl)-1,2,3,4-tetrahydronaphthalen-1-yl)-3-(dimethylamino)propanamide], with > 5 nM; and `CC(C)Oc1ccc(-c2nnc(-c3cccc4c3CCC[C@H]4NC(=O)CCNS(C)(=O)=O)s2)cc1C#N` [Compound 258], with 0.5 to 5 nM; and `CC(C)Oc1ccc(-c2nnc(-c3cccc4c3CCC[C@H]4NC(=O)CCO)s2)cc1C#N` [Compound 259], with 0.05 to 0.5 nM. For `CNCCC(=O)N[C@@H]1CCCc2c(-c3nnc(-c4ccc(OC(C)C)c(C#N)c4)s3)cccc21` [Compound 260], the EC50 was 0.5 to 5 nM. As for `CC(C)Oc1ccc(-c2nnc(-c3cccc4c3CCC[C@H]4NCc3c[nH]cn3)s2)cc1C#N` [Compound 261], the figure is > 5 nM. As for `CC(C)Oc1ccc(-c2nnc(-c3cccc4c3CCC[C@H]4NCc3ccncc3)s2)cc1C#N` [Compound 262], the figure is 0.5 to 5 nM; as for `CC(C)Oc1ccc(-c2nnc(-c3cccc4c3CCC[C@H]4NCc3cccnc3)s2)cc1C#N` [Compound 263, (R)-2-isopropoxy-5-(5-(5-((pyridin-3-ylmethyl)amino)-5,6,7,8-tetrahydronaphthalen-1-yl)-1,3,4-thiadiazol-2-yl)benzonitrile], 0.5 to 5 nM. Consider `CC(C)Oc1ccc(-c2nnc(-c3cccc4c3CCC[C@H]4NCc3ccccn3)s2)cc1C#N` [Compound 264], for which the EC50 is 0.5 to 5 nM. As for `CC(C)Oc1ccc(-c2nnc(-c3cccc4c3CCC[C@H]4NCc3ncc[nH]3)s2)cc1C#N` [Compound 265], the EC50 fell in the range of 0.5 to 5 nM. As for `CC(C)Oc1ccc(-c2nnc(-c3cccc4c3CCC[C@@H]4NCc3ncc[nH]3)s2)cc1C#N` [Compound 266], the figure is 0.05 to 0.5 nM. As for `CC(C)Oc1ccc(-c2nnc(-c3cccc4c3CCC[C@@H]4NCc3cnc[nH]3)s2)cc1C#N` [Compound 267], the EC50 is 0.5 to 5 nM.

In the case of `CC(C)Oc1ccc(-c2nnc(-c3cccc4c3CCC[C@@H]4NCc3ncco3)s2)cc1C#N` [Compound 268], the EC50 is 0.5 to 5 nM. As for `CC(C)Oc1ccc(-c2nnc(-c3cccc4c3CCC[C@@H]4NCc3cnco3)s2)cc1C#N` [Compound 269], the figure is 0.5 to 5 nM; as for `CC(C)Oc1ccc(-c2nnc(-c3cccc4c3CCC[C@@H]4NCc3ccncc3)s2)cc1C#N` [Compound 270], 0.5 to 5 nM.

Regarding `CC(C)Oc1ccc(-c2nnc(-c3cccc4c3CCC[C@@H]4NCc3cccnc3)s2)cc1C#N` [Compound 271, (S)-2-isopropoxy-5-(5-(5-((pyridin-3-ylmethyl)amino)-5,6,7,8-tetrahydronaphthalen-1-yl)-1,3,4-thiadiazol-2-yl)benzonitrile], the EC50 is 0.5 to 5 nM. On to `CC(C)Oc1ccc(-c2nnc(-c3cccc4c3CCC[C@@H]4NCc3ccccn3)s2)cc1C#N` [Compound 272], for which the EC50 lay in the range of 0.5 to 5 nM. Then `CC(C)Oc1ccc(-c2nnc(-c3cccc4c3CCC[C@H]4NCc3cnco3)s2)cc1C#N` [Compound 273], with 0.5 to 5 nM; and `CC(C)Oc1ccc(-c2nnc(-c3cccc4c3CCC[C@H]4NCCN(C)C)s2)cc1C#N` [Compound 274, (R)-5-(5-(5-((2-(dimethylamino)ethyl)amino)-5,6,7,8-tetrahydronaphthalen-1-yl)-1,3,4-thiadiazol-2-yl)-2-isopropoxybenzonitrile], with 0.5 to 5 nM. Then `CC(C)Oc1ccc(-c2nnc(-c3cccc4c3CCC[C@H]4NS(N)(=O)=O)s2)cc1C#N` [Compound 275, (R)—N-(5-(5-(3-cyano-4-isopropoxyphenyl)-1,3,4-thiadiazol-2-yl)-1,2,3,4-tetrahydronaphthalen-1-yl) sulfamide], with 0.05 to 0.5 nM.

As to `CC(C)Oc1ccc(-c2nnc(-c3cccc4c3CCC[C@@H]4NS(N)(=O)=O)s2)cc1C#N` [Compound 276, (S)—N-(5-(5-(3-cyano-4-isopropoxyphenyl)-1,3,4-thiadiazol-2-yl)-1,2,3,4-tetrahydronaphthalen-1-yl)sulfamide], the EC50 is 0.05 to 0.5 nM. Take `CC(C)Oc1ccc(-c2ncc(-c3cccc4c3CCC[C@H]4NS(N)(=O)=O)s2)cc1C#N` [Compound 277, (R)—N-(5-(2-(3-cyano-4-isopropoxyphenyl)thiazol-5-yl)-1,2,3,4-tetrahydronaphthalen-1-yl)sulfamide]: the EC50 lay within 0.05 to 0.5 nM.

For the compound `CC(C)Oc1ccc(-c2nnc(-c3cccc4c3CCC[C@H]4NS(C)(=O)=O)s2)cc1C#N` [Compound 278, (R)—N-(5-(5-(3-cyano-4-isopropoxyphenyl)-1,3,4-thiadiazol-2-yl)-1,2,3,4-tetrahydronaphthalen-1-yl)methanesulfonamide], the EC50 lay in the range of 0.05 to 0.5 nM. Regarding `CC(C)Oc1ccc(-c2nnc(-c3cccc4c3CCC[C@@H]4NS(C)(=O)=O)s2)cc1C#N` [Compound 279, (S)—N-(5-(5-(3 cyano-4-isopropoxyphenyl)-1,3,4-thiadiazol-2-yl)-1,2,3,4-tetrahydronaphthalen-1-yl)methanesulfonamide], the EC50 was 0.05 to 0.5 nM. For `COCCS(=O)(=O)N[C@@H]1CCCc2c(-c3nnc(-c4ccc(OC(C)C)c(C#N)c4)s3)cccc21` [Compound 280, (R)—N-(5-(5-(3-cyano-4-isopropoxyphenyl)-1,3,4-thiadiazol-2-yl)-1,2,3,4-tetrahydronaphthalen-1-yl)-2-methoxyethanesulfonamide], the EC50 was 0.5 to 5 nM. As for `COCCS(=O)(=O)N[C@H]1CCCc2c(-c3nnc(-c4ccc(OC(C)C)c(C#N)c4)s3)cccc21` [Compound 281, (S)—N-(5-(5-(3-cyano-4-isopropoxyphenyl)-1,3,4-thiadiazol-2-yl)-1,2,3,4-tetrahydronaphthalen-1-yl)-2-methoxyethanesulfonamide], the EC50 lay within 0.05 to 0.5 nM. For the compound `CC(C)Oc1ccc(-c2nnc(-c3cccc4c3CCC[C@H]4NS(=O)(=O)C3CC3)s2)cc1C#N` [Compound 282], the EC50 was 0.5 to 5 nM. As for `CC(C)Oc1ccc(-c2nnc(-c3cccc4c3CCC[C@@H]4NS(=O)(=O)C3CC3)s2)cc1C#N` [Compound 283], the figure is 0.05 to 0.5 nM; as for `COC(=O)CS(=O)(=O)N[C@H]1CCCc2c(-c3nnc(-c4ccc(OC(C)C)c(C#N)c4)s3)cccc21` [Compound 284, (S)-methyl 2-(N-(5-(5-(3-cyano-4-isopropoxyphenyl)-1,3,4-thiadiazol-2-yl)-1,2,3,4-tetrahydronaphthalen-1-yl)sulfamoyl)acetate], 0.5 to 5 nM.

With `COCCS(=O)(=O)N[C@@H]1CCCc2c(-c3cnc(-c4ccc(OC(C)C)c(C#N)c4)s3)cccc21` [Compound 285], the EC50 fell in the range of 0.5 to 5 nM.

On to `CCOC(=O)CCS(=O)(=O)N[C@H]1CCCc2c(-c3nnc(-c4ccc(OC(C)C)c(C#N)c4)s3)cccc21` [Compound 286, (S)-ethyl 3-(N-(5-(5-(3-cyano-4-isopropoxyphenyl)-1,3,4-thiadiazol-2-yl)-1,2,3,4-tetrahydronaphthalen-1-yl)sulfamoyl)propanoate], for which the EC50 was in the range of 0.05 to 0.5 nM. For `CC(C)Oc1ccc(-c2nnc(-c3cccc4c3CCC[C@H]4NS(=O)(=O)CC(=O)O)s2)cc1C#N` [Compound 287, (R)-2-(N-(5-(5-(3-cyano-4-isopropoxyphenyl)-1,3,4-thiadiazol-2-yl)-1,2,3,4-tetrahydronaphthalen-1-yl)sulfamoyl)acetic acid], the EC50 is 0.05 to 0.5 nM. In the case of `CC(C)Oc1ccc(-c2nnc(-c3cccc4c3CCC[C@@H]4NS(=O)(=O)CC(=O)O)s2)cc1C#N` [Compound 288, (S)-2-(N-(5-(5-(3-cyano-4-isopropoxyphenyl)-1,3,4-thiadiazol-2-yl)-1,2,3,4-tetrahydronaphthalen-1-yl)sulfamoyl) acetic acid], the EC50 lay within 0.05 to 0.5 nM. On to `CC(C)Oc1ccc(-c2nnc(-c3cccc4c3CCC[C@H]4NS(=O)(=O)CCO)s2)cc1C#N` [Compound 289, (R)—N-(5-(5-(3-cyano-4-isopropoxyphenyl)-1,3,4-thiadiazol-2-yl)-1,2,3,4-tetrahydronaphthalen-1-yl)-2-hydroxyethanesulfonamide], for which the EC50 was 0.05 to 0.5 nM. Consider `CC(C)Oc1ccc(-c2nnc(-c3cccc4c3CCC[C@@H]4NS(=O)(=O)CCO)s2)cc1C#N` [Compound 290, (S)—N-(5-(5-(3-cyano-4-isopropoxyphenyl)-1,3,4-thiadiazol-2-yl)-1,2,3,4-tetrahydronaphthalen-1-yl)-2-hydroxyethanesulfonamide], for which the EC50 was 0.05 to 0.5 nM. As to `CC(C)Oc1ccc(-c2nnc(-c3cccc4c3CCC[C@@H]4NS(=O)(=O)CCCO)s2)cc1C#N` [Compound 291], the EC50 fell in the range of 0.05 to 0.5 nM.

Turning to `CC(C)Oc1ccc(-c2nnc(-c3cccc4c3CCC[C@H]4NS(=O)(=O)CC(=O)N(C)C)s2)cc1C#N` [Compound 292, (R)-2-(N-(5-(5-(3-cyano-4-isopropoxyphenyl)-1,3,4-thiadiazol-2-yl)-1,2,3,4-tetrahydronaphthalen-1-yl)sulfamoyl)-N,N-dimethylacetamide], the EC50 lay in the range of 0.05 to 0.5 nM.
